The values below are quoted from earlier work in patent US20220364053A1, “HUMAN CELLULAR MODEL FOR INVESTIGATING CORTICO-STRIATAL-MIDBRAIN NEURAL PATHWAYS” (The Board of Trustees of the Leland Stanford Junior …, priority 2019, published 2022).

As a reminder, the IC50 is the midpoint of a concentration-inhibition curve. For orientation: EC50 means the concentration that produces a half-maximal response. Broadly, the Kd is a measure of binding affinity in units of concentration.

Data set [1] deals with element-binding protein (CBP) (Homo sapiens, UniProt Q92793). As to conditions: read-out: IC50, binds to element-binding protein (CBP).
element-binding protein (CBP), sequence (Q92793 whole entry): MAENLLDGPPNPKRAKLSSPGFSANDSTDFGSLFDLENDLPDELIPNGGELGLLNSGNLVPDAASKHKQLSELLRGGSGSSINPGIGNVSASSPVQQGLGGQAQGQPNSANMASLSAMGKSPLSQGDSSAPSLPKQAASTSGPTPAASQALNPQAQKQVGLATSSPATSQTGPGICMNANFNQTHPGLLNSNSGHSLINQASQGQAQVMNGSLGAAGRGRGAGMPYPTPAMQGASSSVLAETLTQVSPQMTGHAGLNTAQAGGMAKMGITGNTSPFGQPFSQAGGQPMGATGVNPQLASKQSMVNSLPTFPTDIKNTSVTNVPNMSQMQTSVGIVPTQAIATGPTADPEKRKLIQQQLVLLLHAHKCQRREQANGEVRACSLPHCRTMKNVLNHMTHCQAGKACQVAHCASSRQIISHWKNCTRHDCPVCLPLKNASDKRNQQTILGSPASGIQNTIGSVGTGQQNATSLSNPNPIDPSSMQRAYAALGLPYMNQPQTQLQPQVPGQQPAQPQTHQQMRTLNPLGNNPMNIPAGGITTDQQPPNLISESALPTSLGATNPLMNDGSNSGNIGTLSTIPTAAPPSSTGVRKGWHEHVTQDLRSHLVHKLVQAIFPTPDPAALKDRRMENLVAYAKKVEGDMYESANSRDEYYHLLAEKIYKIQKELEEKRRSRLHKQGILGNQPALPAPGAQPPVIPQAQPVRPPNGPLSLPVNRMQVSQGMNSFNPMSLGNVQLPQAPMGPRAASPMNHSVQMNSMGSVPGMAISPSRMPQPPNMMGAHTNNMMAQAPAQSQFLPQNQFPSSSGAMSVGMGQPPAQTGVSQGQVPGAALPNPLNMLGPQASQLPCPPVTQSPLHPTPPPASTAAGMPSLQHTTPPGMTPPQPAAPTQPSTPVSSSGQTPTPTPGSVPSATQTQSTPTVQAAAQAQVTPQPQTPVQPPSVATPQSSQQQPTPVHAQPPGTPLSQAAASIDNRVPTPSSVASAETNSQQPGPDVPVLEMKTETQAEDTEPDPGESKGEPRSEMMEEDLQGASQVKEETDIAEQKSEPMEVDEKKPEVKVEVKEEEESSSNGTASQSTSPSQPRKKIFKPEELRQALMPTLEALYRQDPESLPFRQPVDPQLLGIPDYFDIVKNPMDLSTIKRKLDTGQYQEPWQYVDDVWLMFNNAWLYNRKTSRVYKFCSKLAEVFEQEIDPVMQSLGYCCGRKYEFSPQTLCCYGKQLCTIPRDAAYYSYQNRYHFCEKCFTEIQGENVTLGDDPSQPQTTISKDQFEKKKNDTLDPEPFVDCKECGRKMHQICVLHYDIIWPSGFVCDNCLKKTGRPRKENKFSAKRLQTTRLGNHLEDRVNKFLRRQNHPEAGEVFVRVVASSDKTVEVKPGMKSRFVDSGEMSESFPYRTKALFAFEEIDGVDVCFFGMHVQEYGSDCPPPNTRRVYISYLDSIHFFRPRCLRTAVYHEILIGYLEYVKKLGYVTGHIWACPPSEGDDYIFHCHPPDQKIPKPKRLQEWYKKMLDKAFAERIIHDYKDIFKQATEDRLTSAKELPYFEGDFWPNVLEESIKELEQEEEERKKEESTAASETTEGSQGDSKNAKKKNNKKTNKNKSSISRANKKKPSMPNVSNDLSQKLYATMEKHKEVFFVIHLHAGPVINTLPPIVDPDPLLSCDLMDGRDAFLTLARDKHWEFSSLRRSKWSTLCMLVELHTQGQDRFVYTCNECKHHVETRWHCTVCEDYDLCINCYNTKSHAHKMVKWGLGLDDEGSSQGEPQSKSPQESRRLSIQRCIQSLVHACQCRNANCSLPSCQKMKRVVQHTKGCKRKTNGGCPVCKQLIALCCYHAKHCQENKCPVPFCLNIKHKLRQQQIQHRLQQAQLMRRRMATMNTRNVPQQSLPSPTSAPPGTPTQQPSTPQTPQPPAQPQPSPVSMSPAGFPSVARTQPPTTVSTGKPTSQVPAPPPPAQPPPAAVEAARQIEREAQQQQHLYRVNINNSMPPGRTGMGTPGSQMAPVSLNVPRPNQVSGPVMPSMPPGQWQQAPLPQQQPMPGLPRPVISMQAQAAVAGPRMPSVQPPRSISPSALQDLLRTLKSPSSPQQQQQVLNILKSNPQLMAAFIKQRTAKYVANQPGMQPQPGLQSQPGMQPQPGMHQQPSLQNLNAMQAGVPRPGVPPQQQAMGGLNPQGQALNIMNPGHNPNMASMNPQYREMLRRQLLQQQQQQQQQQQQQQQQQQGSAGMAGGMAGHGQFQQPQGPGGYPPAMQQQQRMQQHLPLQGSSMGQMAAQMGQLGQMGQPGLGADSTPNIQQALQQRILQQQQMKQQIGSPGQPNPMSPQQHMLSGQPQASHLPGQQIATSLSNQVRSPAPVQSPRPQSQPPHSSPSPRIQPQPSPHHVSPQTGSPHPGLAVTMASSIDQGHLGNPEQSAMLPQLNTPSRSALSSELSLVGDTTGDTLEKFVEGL
The subject of data set [2] is Wnt processing and secretion. Conditions: cell-free assay; read-out: IC50, inhibitor of Wnt processing and secretion.
In data set [3] the test system is Wnt-stimulated cellular responses.
In data set [4] the target is T1, Porcn (Homo sapiens, UniProt Q9H237).
T1 sequence (Q9H237 1-461): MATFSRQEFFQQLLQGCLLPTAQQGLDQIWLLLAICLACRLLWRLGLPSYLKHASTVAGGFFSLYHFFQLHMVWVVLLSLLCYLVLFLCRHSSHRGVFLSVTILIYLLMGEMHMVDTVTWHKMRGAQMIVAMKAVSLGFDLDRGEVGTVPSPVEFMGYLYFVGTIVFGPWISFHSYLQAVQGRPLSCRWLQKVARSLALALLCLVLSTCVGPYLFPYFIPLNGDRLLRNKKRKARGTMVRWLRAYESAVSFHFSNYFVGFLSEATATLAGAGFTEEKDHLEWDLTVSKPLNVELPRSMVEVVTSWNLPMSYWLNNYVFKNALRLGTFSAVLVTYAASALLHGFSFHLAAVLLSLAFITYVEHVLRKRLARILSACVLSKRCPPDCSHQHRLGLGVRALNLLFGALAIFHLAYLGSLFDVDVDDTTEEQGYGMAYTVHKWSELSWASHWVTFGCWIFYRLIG
Conditions: read-out: EC50, Porcn inhibitor.

Data set [5] concerns Wnt signaling. As to conditions: TM3 cells; read-out: IC50, inhibits Wnt signaling.
Data set [6] deals with Smo heptahelical domain (Homo sapiens, UniProt Q99835).
Smo heptahelical domain, sequence (Q99835 28-787): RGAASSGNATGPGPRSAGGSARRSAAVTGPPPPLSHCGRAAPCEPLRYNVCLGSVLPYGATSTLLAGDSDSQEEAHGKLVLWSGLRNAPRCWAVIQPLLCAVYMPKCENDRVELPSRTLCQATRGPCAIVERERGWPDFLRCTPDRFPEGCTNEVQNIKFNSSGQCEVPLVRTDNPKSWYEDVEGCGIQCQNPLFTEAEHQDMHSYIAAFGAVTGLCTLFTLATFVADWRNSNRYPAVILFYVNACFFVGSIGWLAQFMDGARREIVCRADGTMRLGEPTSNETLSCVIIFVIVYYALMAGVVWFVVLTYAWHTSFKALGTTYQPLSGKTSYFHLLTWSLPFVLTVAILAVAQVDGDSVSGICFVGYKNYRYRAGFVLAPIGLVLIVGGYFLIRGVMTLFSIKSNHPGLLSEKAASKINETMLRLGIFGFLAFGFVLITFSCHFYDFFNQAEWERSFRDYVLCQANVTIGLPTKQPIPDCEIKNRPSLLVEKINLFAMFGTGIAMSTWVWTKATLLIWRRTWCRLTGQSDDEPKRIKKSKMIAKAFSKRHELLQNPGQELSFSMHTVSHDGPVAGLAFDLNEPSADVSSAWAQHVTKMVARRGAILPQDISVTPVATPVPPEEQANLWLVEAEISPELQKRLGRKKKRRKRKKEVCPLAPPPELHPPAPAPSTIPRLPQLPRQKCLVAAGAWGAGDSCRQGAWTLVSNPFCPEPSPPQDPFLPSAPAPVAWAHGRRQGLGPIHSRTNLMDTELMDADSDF
Data set [7] has as its target T2, TNKS2 (Homo sapiens, UniProt Q9H2K2).
T2 sequence (Q9H2K2 1-1166): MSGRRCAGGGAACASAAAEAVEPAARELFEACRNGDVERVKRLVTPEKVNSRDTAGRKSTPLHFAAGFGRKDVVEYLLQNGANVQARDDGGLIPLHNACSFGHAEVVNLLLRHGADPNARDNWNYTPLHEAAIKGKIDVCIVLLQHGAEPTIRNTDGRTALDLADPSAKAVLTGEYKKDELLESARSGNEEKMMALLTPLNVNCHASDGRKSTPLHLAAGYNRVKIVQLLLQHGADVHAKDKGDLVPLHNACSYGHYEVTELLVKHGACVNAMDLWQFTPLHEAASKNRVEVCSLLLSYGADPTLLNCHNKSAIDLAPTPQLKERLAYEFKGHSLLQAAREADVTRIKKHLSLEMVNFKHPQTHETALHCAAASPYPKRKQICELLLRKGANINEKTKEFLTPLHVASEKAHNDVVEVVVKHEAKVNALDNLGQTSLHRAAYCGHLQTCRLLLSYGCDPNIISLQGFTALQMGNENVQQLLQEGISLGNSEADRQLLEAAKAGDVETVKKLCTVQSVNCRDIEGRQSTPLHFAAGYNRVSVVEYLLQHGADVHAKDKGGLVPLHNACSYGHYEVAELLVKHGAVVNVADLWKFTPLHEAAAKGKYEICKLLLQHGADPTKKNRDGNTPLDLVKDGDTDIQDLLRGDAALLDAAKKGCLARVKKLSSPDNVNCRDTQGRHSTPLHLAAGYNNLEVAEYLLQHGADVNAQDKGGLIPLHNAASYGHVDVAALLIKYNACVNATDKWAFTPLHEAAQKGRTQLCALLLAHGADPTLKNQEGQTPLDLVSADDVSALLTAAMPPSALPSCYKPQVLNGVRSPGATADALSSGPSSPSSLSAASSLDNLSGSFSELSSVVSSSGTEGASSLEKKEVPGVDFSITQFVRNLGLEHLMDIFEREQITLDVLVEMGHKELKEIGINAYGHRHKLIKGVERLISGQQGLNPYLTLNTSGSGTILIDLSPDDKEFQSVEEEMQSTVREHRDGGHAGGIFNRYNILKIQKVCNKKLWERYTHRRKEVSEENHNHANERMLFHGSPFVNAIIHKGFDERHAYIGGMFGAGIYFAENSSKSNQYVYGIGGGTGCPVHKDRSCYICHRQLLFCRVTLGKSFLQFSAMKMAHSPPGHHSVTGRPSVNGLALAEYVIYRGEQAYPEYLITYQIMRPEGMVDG

For data set [8], the target named is Wnt3A-mediated activation of a multimerized TCF-binding site driving luciferase. Conditions: HEK293 cells.

On to `O=C1[C@H](Cc2ccc(O)cc2)N2C(=O)CCN(C(=O)NCc3ccccc3)[C@H]2CN1Cc1cccc2ccccc12` [ICG-001], for which the IC50 in data set [1] was 3000 nM.
For `Cc1ccc2nc(NC(=O)CSc3nc4c(c(=O)n3-c3ccccc3)SCC4)sc2c1` [IWP-2], the IC50 in data set [2] is 27 nM. In addition, the “effect against Wnt-stimulated cellular responses” value in data set [3] is reported as “no effect”.
Regarding `O=C(CSc1nc2c(c(=O)n1-c1ccccc1)SCC2)Nc1ccc(-c2ccccc2)cn1` [IWP-L6], the EC50 in data set [4] is 0.5 nM.
Turning to `Cc1cc(-c2ncc(CC(=O)Nc3ccc(-c4cnccn4)cn3)cc2C)ccn1` [LGK-974], the IC50 in data set [5] is 0.4 nM.
On to `CNC1CCC(N(Cc2cccc(-c3ccncc3)c2)C(=O)c2sc3ccccc3c2Cl)CC1` (centres unmarked) [SAG], for which the Kd in data set [6] is 59 nM.
Regarding `COc1ccc(-n2c(SCCCN3C(=O)c4cccc5cccc(c45)C3=O)nnc2-c2ccncc2)cc1` [WIKI4], the IC50 in data set [7] is 15 nM.
`Cc1cc(-c2ccc(CC(=O)Nc3ccc(-c4cccnc4)cc3)cc2)ccn1` [Wnt-C59]: the IC50 in data set [8] was 74000 nM.
